The values that follow are results of earlier work, collected in patent publication US7709509B2, “Oxadiazolones and derivatives thereof as peroxisome proliferator-activated receptor (PPAR) delta agonists” (Sanofi-Aventis Deutschland GmbH, priority 2004, dated 2010).

The conditions of series [1]: rhesus and cynomolgus monkeys; cited from earlier work.
For series [2] the following is noted: two weeks clinical trials in healthy volunteers; cited from earlier work.

Where two headings read alike, the source gives them in different places.

`CCCc1c(OCCCSc2nnc(SCC(=O)O)s2)ccc(C(C)=O)c1O` [YM-16638]: the plasma lipids result in series [1] is “significantly lowers”; in series [2], “acts in a similar manner”.
